This data set can be described thus: Plasma pharmacokinetics of Si306 in mice. It counts as in vivo, BALB/C mice. The settings on record: for AUC(0-t): read-out: AUC 0→24 h; for MRT inf: read-out: MRT 0→∞. The source says: Naive male BALB/C mice (weight 20 ± 2 g) were ordered from Charles River (Milan, Italy). All animals were pathogen free and approximately 4–6 weeks old when they arrived. The adaption period to the environment was not less than seven days. All the procedures used on animals in this study were approved by Institutional Animal Use and Care Committee at Università Cattolica del S. Cuore, Rome and Università degli Studi di Siena and authorized by the Italian Ministry of Health, according to Legislative Decree 116/92, which implemented the European Directive 86/609/EEC on laboratory animal protection in Italy. Methods for all the conducted experiments were performed in accordance with regulations, standards and guidelines of the Animal Use and Care Committee of Università Cattolica del S. Cuore, Rome and Università degli Studi di Siena.
Si306 was dissolved in a mixture of Tween80 (10% v/v), benzyl alcohol (1% v/v) and a 10 mM solution of citric acid. The compound was administered intravenously as a single dose of 25 mg/kg in 200 μL of volume. At several time points (0.08, 0.25, 0.5, 1, 2, 4, 8, 24 h), after drug administration, mice were treated i.p. with heparin (5000 U/kg) and sacrificed under CO2. Five animals were used for each time point. Blood, brain, liver and kidneys were collected for the following quantitative analysis. Approximately 500–600 μL of blood was collected from each animal and transferred to a tube containing 10 μL of heparin and mixed briefly.
For the oral PK studies, mice received a single dose of 50 mg/kg of Si306 (dissolved in the same vehicle used for i.v. studies) in 400 μL of final volume by gavage. At nine time-points (0.25, 0.5, 1, 1.5, 2, 3, 4, 8, 24 h) after administration, mice were sacrificed under CO2. Blood and organs were collected and analyzed by LC-MS. The pharmacokinetic parameters, including area under concentration-time curve (AUC), maximum plasma concentration (Cmax), half-time (t1/2), apparent volume of distribution (V), plasma clearance (CL) and mean residence time (MRT), were calculated by non-compartmental analysis using PKSolver software (ver. 1.0, Nanjing, China).
Blood samples were centrifuged at 5000 rpm for 20 min to separate the plasma fraction, which was subsequently collected in a test tube. Acetonitrile (1 mL, with Si34 as internal standard at the concentration of 5 μg/mL) was added to each sample to denature proteins. Samples were centrifuged at 5000 rpm for 20 min, and the supernatant was recovered, dried under vacuum, solubilized again in methanol (100 μL), and analyzed. Brain and the other organs were homogenized using a T10 basic ULTRA-TURRAX® homogenizer (Bioclass, Pistoia, Italy); in order to extract the compound from the tissue, acetonitrile internal standard solution was added, and the homogenate was centrifuged at 5000 rpm for 20 min. The supernatant was recovered, filtered and analyzed by LC-MS. The quantification of each compound was performed by reference to the appropriate calibration curve. Representative LC-MS chromatograms for Si306 and for Si34 are reported in Figure S2 and Figure S3 respectively.

Where [1] appears, read: male, BALB/C, mouse, iv, 25 mg/kg, mice.
Where [2] appears, read: male, BALB/C, mouse, po, 50 mg/kg, mice.

Where two headings read alike, the source gives them in different places.

One may read the AUC(0-inf) as the area under the concentration-time curve extrapolated to infinity. A low value points to less exposure. As usually defined, the Cmax is the highest concentration seen after dosing. For orientation: half-life means the time needed for the level to fall by half in the phase considered. Low values mean fast loss, high ones slow loss. By bioavailability is commonly meant dose-corrected exposure relative to a reference, in per cent. A lower bioavailability goes with little systemic uptake.

For `ClC(Cn1ncc2c(Nc3cccc(Br)c3)nc(SCCN3CCOCC3)nc21)c1ccccc1` (stereo not shown) [Si306], the “Cmax for i.v. treatment, times higher than p.o.” value (i.v. 25 mg/kg vs p.o. 50 mg/kg) was 8.5 times. Under “i.v., 25 mg/kg, mice”, the “CL z/F” value amounted to 18.3 mL/min/kg and the “V z/F” value amounted to 8.17 L/kg. In addition, the Tmax (male, BALB/C, mouse, iv, 25 mg/kg, i.v., 25 mg/kg, mice, read-out: Tmax) turned out to be 0.08 h. Further, the Tmax (male, BALB/C, mouse, iv, 25 mg/kg, i.v., 25 mg/kg, mice, read-out: time of peak plasma concentration (converted)) was 0.0833 h. Under setting [1], the total exposure AUC(0-inf) is 22800 ng·h/mL, the concentration peaked (Cmax) at 25400 ng/mL, the half-life was 5.15 h and the AUC(0-t) came out at 22300 ng·h/mL. In addition, the MRT inf under setting [1] was 3.78 h. In addition, where the note is “male, BALB/C, mouse, oral, 50 mg/kg, mice, p.o. 50 mg/kg vs i.v. 25 mg/kg, equation (1)”, the bioavailability was 33.3%. In addition, under setting [2], the AUC(0-inf) came out at 15200 ng·h/mL, the Cmax amounted to 2970 ng/mL, the half-life was 5.96 h and the AUC(0-t) amounted to 14500 ng·h/mL. In addition, the MRT inf under setting [2] came to 5.7 h. For the setting “male, BALB/C, mouse, po, 50 mg/kg, mice, read-out: CL z/F (converted)”, the CL/F was 54.8 mL/min/kg. Where the note is “male, BALB/C, mouse, po, 50 mg/kg, mice, read-out: V z/F”, the Vd/F worked out at 28.3 L/kg. The Tmax (male, BALB/C, mouse, po, 50 mg/kg, p.o., 50 mg/kg, mice, read-out: Tmax) worked out at 1.5 h.

These data come from article PMC6628362, “A New Strategy for Glioblastoma Treatment: In Vitro and In Vivo Preclinical Characterization of Si306, a Pyrazolo[3,4-d]Pyrimidine Dual Src/P-Glycoprotein Inhibitor” (Cancers, 2019).
